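Where inhibition never reached the appropriate level, the endpoint shown equals the highest concentration tested. Otherwise, values were interpolated linearly from a five-concentration, 48-hour dose response in 96-well plates. GI50 = concentration required for 50% inhibition of growth.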 Activity calls are given as the source filed them. Cut-off read from the data, not from the text of the source: active = GI50 up to about 1.1 µM and inactive = higher. Starred links: 1 amine or outer side, 2 acyl side, 3 side chain; linkers in the order of their positions; H or OH if unused. Non-standard residues stand in square brackets, D forms with d. Residues, ends and D or L forms follow the SMILES beside them. ξ: configuration not given here. X24 = O=C(C(CC(O)CO)O[*:1])[*:2]; Ile(3ξ) = CCC(C)[C@H](N)C(=O)O; NMeV = CN[C@H](C(=O)O)C(C)C; NMeA = CN[C@@H](C)C(=O)O; βAla = NCCC(=O)O
Columns and labels:
Assay in all cases: NCI anticancer screen, dose series, 48 h
UACC-62 = tested on: UACC-62
NCI-H226 = tested on: NCI-H226
ACHN = tested on: ACHN
SNB-19 = tested on: SNB-19
Malme-3M = tested on: Malme-3M
SK-MEL-2 = tested on: SK-MEL-2
SK-MEL-28 = tested on: SK-MEL-28
IGROV-1 = tested on: IGROV-1
SK-OV-3 = tested on: SK-OV-3
COLO 205 = tested on: COLO 205
UACC-257 = tested on: UACC-257
SNB-75 = tested on: SNB-75
DLD-1 = tested on: DLD-1
K562 = tested on: K562
OVCAR-5 = tested on: OVCAR-5
SW-620 = tested on: SW-620
RXF 393 = tested on: RXF 393

Measured: GI50

O=C(Cc1ccc([N+](=O)[O-])c([N+](=O)[O-])c1CC(=O)C(=O)Nc1cc(Cl)ccc1Cl)C(=O)Nc1cc(Cl)ccc1Cl
inactive: UACC-62 > 100 µM | NCI-H226 82.2 µM | ACHN > 100 µM | SNB-19 > 100 µM | Malme-3M > 100 µM | SK-MEL-2 > 100 µM | SK-MEL-28 > 100 µM | IGROV-1 > 100 µM | SK-OV-3 > 100 µM | COLO 205 22.9 µM | UACC-257 > 100 µM | SNB-75 > 100 µM | DLD-1 > 100 µM | K562 33.5 µM | OVCAR-5 > 100 µM | SW-620 37.9 µM | RXF 393 30.8 µM

C=C1c2ccccc2N(S(=O)(=O)c2ccc(C)cc2)C12CCCCC2
inactive: UACC-62 62.2 µM | NCI-H226 53.2 µM | ACHN 57.4 µM | SNB-19 > 100 µM | Malme-3M 34.8 µM | SK-MEL-2 52.6 µM | SK-MEL-28 45.2 µM | IGROV-1 > 100 µM | SK-OV-3 > 100 µM | COLO 205 43.5 µM | UACC-257 36 µM | SNB-75 50.9 µM | DLD-1 > 100 µM | K562 29 µM | OVCAR-5 > 100 µM | SW-620 59.3 µM | RXF 393 45.6 µM

NC(CO)c1ccc(OCc2ccccc2)cc1 (configuration not stated)
inactive: UACC-62 > 70.8 µM | NCI-H226 > 100 µM | ACHN > 100 µM | SNB-19 > 63.7 µM | Malme-3M > 100 µM | SK-MEL-2 > 100 µM | SK-MEL-28 > 100 µM | IGROV-1 > 100 µM | SK-OV-3 > 100 µM | COLO 205 > 100 µM | UACC-257 > 100 µM | SNB-75 20.3 µM | DLD-1 > 100 µM | K562 > 100 µM | OVCAR-5 > 100 µM | SW-620 38.8 µM | RXF 393 > 73.5 µM

CCC(C)[C@@H]1NC(=O)[C@@H]2CCCN2C(=O)C(CC(O)CO)OC(=O)CCNC(=O)[C@H](C)N(C)C(=O)[C@H](C(C)C)N(C)C1=O (some centres not stated) (cyclo([Ile(3ξ)][NMeV][NMeA][βAla][X24]P))
inactive: UACC-62 > 100 µM | NCI-H226 > 100 µM | SNB-19 > 100 µM | Malme-3M > 100 µM | SK-MEL-2 > 100 µM | SK-MEL-28 > 100 µM | IGROV-1 > 100 µM | SK-OV-3 > 100 µM | COLO 205 > 100 µM | UACC-257 > 100 µM | SNB-75 > 100 µM | DLD-1 > 100 µM | K562 > 100 µM | OVCAR-5 > 100 µM | SW-620 > 100 µM | RXF 393 > 100 µM

COc1cc2c3c(c1OC)-c1ccccc1C(C(O)c1ccccc1)C3N(C)CC2 (configuration not stated)
inactive: UACC-62 7.76 µM | NCI-H226 31 µM | ACHN 39.1 µM | SNB-19 88.5 µM | Malme-3M 19.6 µM | SK-MEL-2 28.1 µM | SK-MEL-28 16.4 µM | IGROV-1 38.8 µM | SK-OV-3 37.3 µM | COLO 205 15.8 µM | UACC-257 20.5 µM | SNB-75 40 µM | DLD-1 26.4 µM | K562 25.9 µM | OVCAR-5 > 100 µM | SW-620 34.3 µM | RXF 393 12.4 µM

COc1ccc2c(c1)[n+]([O-])c(C(=O)C/C(=N\NC(=O)C[N+](C)(C)C)C(=O)Nc1cc(Cl)ccc1Cl)c(C)[n+]2[O-]
inactive: UACC-62 97.7 µM | NCI-H226 > 100 µM | ACHN > 100 µM | SNB-19 > 100 µM | Malme-3M > 100 µM | SK-MEL-2 > 100 µM | SK-MEL-28 > 100 µM | IGROV-1 > 100 µM | COLO 205 > 100 µM | UACC-257 > 100 µM | SNB-75 > 100 µM | DLD-1 > 100 µM | K562 > 100 µM | OVCAR-5 > 100 µM | SW-620 > 100 µM | RXF 393 > 100 µM

COc1ccc(-c2cc(C(=O)Nc3cccc(C(F)(F)F)c3)nc(S)n2)cc1
inactive: UACC-62 > 100 µM | NCI-H226 > 100 µM | ACHN > 100 µM | SNB-19 > 100 µM | Malme-3M > 100 µM | SK-MEL-2 > 100 µM | SK-MEL-28 > 100 µM | IGROV-1 > 100 µM | SK-OV-3 > 100 µM | COLO 205 > 100 µM | UACC-257 > 100 µM | SNB-75 > 100 µM | DLD-1 > 100 µM | K562 > 100 µM | OVCAR-5 > 100 µM | SW-620 > 100 µM | RXF 393 > 100 µM
